In assay [1] the target is T1, human progesterone receptor B (Homo sapiens, UniProt P06401).
T1 construct: expressed in transfected cells; host or cells: SK-N-MC human neuroblastoma cells, stably transfected with pRChPR-B-neo and pMMTV-LUC
T1 sequence (P06401 1-933): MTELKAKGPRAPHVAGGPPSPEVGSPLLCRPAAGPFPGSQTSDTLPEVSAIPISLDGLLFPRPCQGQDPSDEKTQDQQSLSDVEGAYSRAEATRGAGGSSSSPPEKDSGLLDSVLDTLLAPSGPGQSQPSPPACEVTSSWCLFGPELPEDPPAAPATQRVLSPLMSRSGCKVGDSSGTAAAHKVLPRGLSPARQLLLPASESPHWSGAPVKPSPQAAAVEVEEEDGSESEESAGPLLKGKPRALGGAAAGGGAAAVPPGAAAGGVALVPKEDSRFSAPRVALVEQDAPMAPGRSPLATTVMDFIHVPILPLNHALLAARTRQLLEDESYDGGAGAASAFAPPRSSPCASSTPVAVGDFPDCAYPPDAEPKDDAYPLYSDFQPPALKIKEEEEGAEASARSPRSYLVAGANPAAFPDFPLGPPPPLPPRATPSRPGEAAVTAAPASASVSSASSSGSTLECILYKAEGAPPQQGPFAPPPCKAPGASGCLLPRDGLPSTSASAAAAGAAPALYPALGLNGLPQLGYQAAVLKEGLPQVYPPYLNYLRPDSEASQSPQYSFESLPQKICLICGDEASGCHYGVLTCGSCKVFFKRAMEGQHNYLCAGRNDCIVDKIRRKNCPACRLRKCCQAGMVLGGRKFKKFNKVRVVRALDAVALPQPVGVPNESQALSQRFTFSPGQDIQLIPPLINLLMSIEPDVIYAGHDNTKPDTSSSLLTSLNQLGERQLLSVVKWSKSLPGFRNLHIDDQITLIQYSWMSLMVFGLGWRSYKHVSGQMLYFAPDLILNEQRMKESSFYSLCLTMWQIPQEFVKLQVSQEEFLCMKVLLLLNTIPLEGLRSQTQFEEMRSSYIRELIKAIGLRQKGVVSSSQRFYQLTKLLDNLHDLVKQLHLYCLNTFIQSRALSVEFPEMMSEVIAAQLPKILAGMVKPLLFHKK
Nature of the assay: Progesterone receptor antagonistic effect in stably transfected SK-N-MC cells, MTV-LUC reporter (PR-B). Format: cell-based. The following applies: antagonism of 0.1 nmol/l promegestone, luciferase reporter, 24 hours. The protocol:
(§1) Progesterone Receptor Antagonistic Effect in Stable Transfectants of Human Neuroblastoma Cells (SK-N-MC cells) with the Human Progesterone A or Progesterone B Receptor and a MTV-LUC Reporter Construct
(§2) SK-N-MC cells (human neuroblastoma cells), which have been stably transfected with plasmids which express the human progesterone receptor B (pRChPR-B-neo) or the human progesterone receptor A (pRChPR-A-neo) and a reporter construct (pMMTV-LUC), were incubated for 24 hours either in the absence (negative control) or in the presence of increasing amounts of the particular test compound (0.01 nmol/l, 0.1 nmol/l, 1 nmol/l, 10 nmol/l, 100 nmol/l and 1 μmol/l) in order to determine the agonistic efficacy. As a positive control of the reporter gene induction, the cells were treated with the synthetic gestagen promegestone (0.01 nmol/l, 0.1 nmol/l, 1 nmol/l, 10 nmol/l, 100 nmol/l and 1 μmol/l). To determine the antagonistic activity, the cells were treated with 0.1 nmol/l of promegestone and additionally with increasing amounts of the particular test compound (0.01 nmol/l, 0.1 nmol/l, 1 nmol/l, 10 nmol/l, 100 nmol/l and 1 μmol/l). The activity of the reporter gene LUC (LUC=luciferase) was determined in the cell lysates and measured as RLU (relative light units). All measurement values are given as percentage efficacy and as EC50 or IC50 concentrations.
(In general: A reporter such as luciferase makes a cellular process visible.)

Assay [2] deals with T2, human progesterone receptor A (Homo sapiens, UniProt P06401).
T2 construct: expressed in transfected cells; host or cells: SK-N-MC human neuroblastoma cells, stably transfected with pRChPR-A-neo and pMMTV-LUC
T2 sequence (P06401 1-769 isoform P06401-2): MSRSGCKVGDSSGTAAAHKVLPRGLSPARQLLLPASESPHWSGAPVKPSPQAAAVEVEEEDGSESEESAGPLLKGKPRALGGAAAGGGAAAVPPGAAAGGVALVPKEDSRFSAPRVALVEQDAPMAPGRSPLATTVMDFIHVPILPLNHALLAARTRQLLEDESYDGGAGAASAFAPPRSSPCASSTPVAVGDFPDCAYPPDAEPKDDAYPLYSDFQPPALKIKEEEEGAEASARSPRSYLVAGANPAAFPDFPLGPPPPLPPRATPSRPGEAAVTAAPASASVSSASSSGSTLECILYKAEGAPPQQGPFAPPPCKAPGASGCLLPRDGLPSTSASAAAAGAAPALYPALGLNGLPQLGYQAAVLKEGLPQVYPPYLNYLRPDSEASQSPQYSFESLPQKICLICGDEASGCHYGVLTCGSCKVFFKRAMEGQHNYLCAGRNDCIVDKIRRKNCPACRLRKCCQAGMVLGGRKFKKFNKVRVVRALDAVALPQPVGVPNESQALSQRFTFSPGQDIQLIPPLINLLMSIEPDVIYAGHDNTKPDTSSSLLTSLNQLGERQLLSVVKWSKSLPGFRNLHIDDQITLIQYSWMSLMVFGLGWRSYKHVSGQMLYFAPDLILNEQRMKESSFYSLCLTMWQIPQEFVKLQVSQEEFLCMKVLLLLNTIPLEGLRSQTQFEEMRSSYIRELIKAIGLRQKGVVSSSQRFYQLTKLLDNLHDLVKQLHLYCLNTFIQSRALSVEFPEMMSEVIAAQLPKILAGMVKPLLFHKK
In words: Progesterone receptor antagonistic effect in stably transfected SK-N-MC cells, MTV-LUC reporter (PR-A). The assay is classed as cell-based. The following applies: antagonism of 0.1 nmol/l promegestone, luciferase reporter, 24 hours. The protocol:
as §1, §2

With `CN(C)Cc1ccc([C@H]2C[C@@]3(C)C(CC[C@@]3(O)C(F)(F)C(F)(F)F)C3CCC4=CC(=O)CCC4=C32)cc1` (stereo partly drawn) [Example 1, (11β,17β)-11-{4-[(Dimethylamino)methyl]phenyl}-17-hydroxy-17-(pentafluoroethyl)estra-4,9-dien-3-one], the IC50 (commonly the concentration that gives 50% inhibition) is 8.2 nM in assay [1] and 7.5 nM in assay [2].

Regarding `CN1CCN(Cc2ccc([C@H]3C[C@@]4(C)[C@@H](CC[C@@]4(O)C(F)(F)C(F)(F)F)[C@@H]4CCC5=CC(=O)CCC5=C43)cc2)CC1` [Example 2, (11β,17β)-17-Hydroxy-11-{4-[(4-methylpiperazin-1-yl)methyl]phenyl}-17-(pentafluoroethyl)estra-4,9-dien-3-one], in assay [1], the IC50 came out at 2.8 nM.

As to `CC(C)(C)OC(=O)N1CCN(Cc2ccc([C@H]3C[C@@]4(C)[C@@H](CC[C@@]4(O)C(F)(F)C(F)(F)F)[C@@H]4CCC5=CC(=O)CCC5=C43)cc2)CC1` [Example 3, tert-Butyl 4-{4-[(11β,17β)-17-hydroxy-3-oxo-17-(pentafluoroethyl)estra-4,9-dien-11-yl]benzyl}piperazine-1-carboxylate], the IC50 in assay [1] amounted to 0.15 nM; in assay [2], 0.11 nM.

Consider `C[C@]12C[C@H](c3ccc(CN4CCCCC4)cc3)C3=C4CCC(=O)C=C4CC[C@H]3[C@@H]1CC[C@@]2(O)C(F)(F)C(F)(F)F` [Example 4, (11β,17β)-17-Hydroxy-17-(pentafluoroethyl)-11-[4-(piperidin-1-ylmethyl)phenyl]estra-4,9-dien-3-one], for which the IC50 amounted to 2.1 nM in assay [1] and 1.4 nM in assay [2].

Take `COC(=O)C1CCN(Cc2ccc([C@H]3C[C@@]4(C)[C@@H](CC[C@@]4(O)C(F)(F)C(F)(F)F)[C@@H]4CCC5=CC(=O)CCC5=C43)cc2)CC1` [Example 5, Methyl 1-{4-[(11β,17β)-17-hydroxy-3-oxo-17-(pentafluoroethyl)estra-4,9-dien-11-yl]benzyl}piperidine-4-carboxylate]: the IC50 in assay [1] came to 0.99 nM; in assay [2] it was 1.2 nM.

For the molecule `CC(C)(C)OC(=O)N1CCCN(Cc2ccc([C@H]3C[C@@]4(C)[C@@H](CC[C@@]4(O)C(F)(F)C(F)(F)F)[C@@H]4CCC5=CC(=O)CCC5=C43)cc2)CC1` [Example 6, tert-Butyl 4-{4-[(11β,17β)-17-hydroxy-3-oxo-17-(pentafluoroethyl)estra-4,9-dien-11-yl]benzyl}-1,4-diazepane-1-carboxylate], the IC50 stood at 0.3 nM in assay [1] and 0.33 nM in assay [2].

On to `C[C@]12C[C@H](c3ccc(CN4CCOCC4)cc3)C3=C4CCC(=O)C=C4CC[C@H]3[C@@H]1CC[C@@]2(O)C(F)(F)C(F)(F)F` [Example 7, (11β,17β)-17-Hydroxy-11-[4-(morpholin-4-ylmethyl)phenyl]-17-(pentafluoroethyl)estra-4,9-dien-3-one], for which the IC50 in assay [1] and in assay [2] was 0.1 nM throughout.

On to `C[C@]12C[C@H](c3ccc(CN4CCS(=O)(=O)CC4)cc3)C3=C4CCC(=O)C=C4CCC3C1CC[C@@]2(O)C(F)(F)C(F)(F)F` (stereo partly drawn) [Example 8, (11β,17β)-11-{4-[(1,1-Dioxidothiomorpholin-4-yl)methyl]phenyl}-17-hydroxy-17-(pentafluoroethyl)estra-4,9-dien-3-one], for which the IC50 in assay [1] was found to be 0.3 nM; in assay [2], 0.1 nM.

Turning to `C[C@]12C[C@H](c3ccc(CNCCc4ccccc4)cc3)C3=C4CCC(=O)C=C4CC[C@H]3[C@@H]1CC[C@@]2(O)C(F)(F)C(F)(F)F` [Example 9, (11β,17β)-17-Hydroxy-17-(pentafluoroethyl)-11-(4-{[(2-phenylethyl)amino]methyl}phenyl)estra-4,9-dien-3-one], the IC50 amounted to 0.98 nM in assay [1] and 1.3 nM in assay [2].

`C[C@]12C[C@H](c3ccc(CN4CCNCC4)cc3)C3=C4CCC(=O)C=C4CC[C@H]3[C@@H]1CC[C@@]2(O)C(F)(F)C(F)(F)F` [Example 10, (11β,17β)-17-Hydroxy-17-(pentafluoroethyl)-11-[4-(piperazin-1-yl-methyl)phenyl]estra-4,9-dien-3-one]: the results for the IC50 in assay [1] and in assay [2] were 0.12 nM and 0.88 nM, respectively.

The record behind these values is patent US9085603B2, “Progesterone receptor antagonists” (Bayer Intellectual Property GmbH, priority 2010, dated 2015).
